Experimental data reported in US8551977B2, “Use of perifosine in combination with antimetabolites for the treatment of benign and malignant oncoses in humans and mammals” (AEterna Zentaris GmbH, priority 2002, dated 2013).

How the values were obtained:
[1] = test system: DMBA-induced rat mammary carcinoma; experiment: DMBA-induced rat mammary carcinoma model; assay type: in vivo; conditions: initial tumor weight = 100%
Source text: (§1) • In vivo Experiment: DMBA-induced rat mammary carcinoma model • Experimental Animal: Sprague-Dawley rat, female • Procedure: The mammary carcinoma was induced by a single oral dose of DMBA. The animals received perifosine from day 0 to day 14 and were observed up to day 42. The weight of the tumor mass was estimated by palpation and comparison with plastic models.
as §1, with “eight” for “weight”, “tumor was” for “tumor”

tumor cells = conditions: Patel et al. 2002; cited from earlier work
[2] = Example 3, female Sprague-Dawley rat, Perifosine 14×6.81 mg/kg p.o., Adriamycin 4×2.15 mg/kg i.p.
[3] = Example 1, female Sprague-Dawley rat, Perifosin 14×6.81 mg/kg p.o., Cis-platinum 4×1 mg/kg i.p.
[4] = Example 2, female Sprague-Dawley rat, Perifosine 14×6.81 mg/kg p.o., Cyclophosphamide 100 mg/kg i.v.

| Structure (SMILES) | Day 21, Change in % (tumor weight) [1, 2] | Day 21, Change in % (tumor weight) [1, 3] | Day 21, Change in % (tumor weight) [1, 4] | cell cycle block (tumor cells) |
| --- | --- | --- | --- | --- |
| COc1cccc2c1C(=O)c1c(O)c3c(c(O)c1C2=O)C[C@@](O)(C(=O)CO)C[C@@H]3O[C@H]1C[C@H](N)[C@H](O)[C@H](C)O1 [Adriamycin, reference compound] | 781% | – | – | – |
| N.N.[Cl][Pt][Cl] [Cis-platinum, reference compound] | – | 410% | – | – |
| O=P1(N(CCCl)CCCl)NCCCO1 (stereo not shown) [Cyclophosphamide, reference compound] | – | – | 500% | – |
| CCCCCCCCCCCCCCCCCCOP(=O)([O-])OC1CC[N+](C)(C)CC1 [Perifosin (D-21266), perifosine] | −25% | −25% | −25% | blocks tumor cells in the G1-S and G2-M phase of the cell cycle |
